Reference: patent US20140128339A1, “2'-METHYL SUBSTITUTED NUCLEOSIDE DERIVATIVES AND METHODS OF USE THEREOF FOR THE TREATMENT OF VIRAL DISEASES” (priority 2012, published 2014)

Key:
replicon cells (1b-Con1) = test: microbe, parasite or virus in culture; format: cell-based, HCV; conditions: Hepatitis C virus, 72 h; 1b-Con1 replicon cells, three days post-dosing, Taqman RT-PCR with GAPDH RNA as control
replicon cells = conditions: CC50, MTS assay three days post dosing in replicon cells
[1] = molecular target: T1, HCV NS5B RNA-dependent RNA polymerase (1b-BKΔ55) (Hepatitis C virus genotype 1b, UniProt P26663); test: Inhibition of HCV NS5B polymerase by nucleoside triphosphate analogs (radiolabeled nucleotide incorporation assay); format: biochemical
T1 construct: 5 nM NS5B (1b-BKΔ55) enzyme
Experimental: To measure inhibition of the enzymatic activity of the HCV NS5B RNA-dependent RNA polymerase by the nucleoside triphosphate compounds of the present invention, a radiolabeled nucleotide incorporation assay was used. This assay is a modified version of the assay described in International Publication No. WO2002/057287. Briefly, 50 μL reactions containing 20 mM HEPES (pH 7.3); 7.5 mM DTT; 20 units/ml RNasIN; 1 μM each of ATP, GTP, UTP and CTP; 20 μCi/mL [^33P]-CTP; 10 mM MgCl; 60 mM NaCl; 100 μg/ml BSA; […] heteropolymer RNA template; and 5 nM NS5B (1b-BKΔ55) enzyme are incubated at room temperature for 1 hour. The assay is then terminated by the addition of 500 mM EDTA (50 μl). The reaction mixture is transferred to a Millipore DE81 filter plate and the incorporation of labeled CTP is determined using Packard TopCount. Compound IC50 values can then be calculated from experiments with 10 serial 3-fold dilutions of the inhibitor in duplicate.
Data was obtained using this method for the NTP analogs of selected compounds below of the present invention, and is set forth below. […] Data is also presented for comparative compounds, labeled as Compound B and Compound C.

T1 sequence (P26663 2420-2955, stated change not applied): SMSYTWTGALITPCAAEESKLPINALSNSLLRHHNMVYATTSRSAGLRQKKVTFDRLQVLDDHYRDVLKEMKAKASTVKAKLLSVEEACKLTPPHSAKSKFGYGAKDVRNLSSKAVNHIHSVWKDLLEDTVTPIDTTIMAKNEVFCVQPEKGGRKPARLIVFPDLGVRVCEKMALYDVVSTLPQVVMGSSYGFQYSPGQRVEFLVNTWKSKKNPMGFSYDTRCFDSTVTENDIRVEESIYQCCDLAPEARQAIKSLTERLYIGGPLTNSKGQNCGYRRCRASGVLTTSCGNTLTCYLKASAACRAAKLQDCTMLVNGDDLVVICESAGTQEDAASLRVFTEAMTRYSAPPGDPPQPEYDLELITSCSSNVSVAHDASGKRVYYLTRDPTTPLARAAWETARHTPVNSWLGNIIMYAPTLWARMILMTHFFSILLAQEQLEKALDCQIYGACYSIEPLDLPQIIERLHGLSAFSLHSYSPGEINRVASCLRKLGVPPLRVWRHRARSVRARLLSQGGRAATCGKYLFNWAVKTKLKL

| Structure (SMILES) | EC50 (replicon cells (1b-Con1)) | Cytotoxicity (replicon cells) | Ki [1] |
| --- | --- | --- | --- |
| CC(C)OC(=O)[C@H](C)N[P@@](=O)(OC[C@H]1OC(n2ccc(N)nc2=O)[C@](C)(C#N)[C@@H]1OC(=O)C(C)C)Oc1ccccc1 (some centres unmarked) [Compound 7] | 0.425 µM | >100 µM |  |
| CCCCCCCCCCCCCCCCCC(=O)O[C@@H]1[C@@H](CO[P@](=O)(N[C@@H](C)C(=O)OC(C)C)Oc2ccccc2)OC(n2ccc(N)nc2=O)[C@]1(C)C#N (some centres unmarked) [Compound 8] | 5.09 µM | 6.54 µM |  |
| CC(C)OC(=O)[C@H](C)N[P@@](=O)(OC[C@H]1OC(n2ccc(NC(=O)C(C)C)nc2=O)[C@](C)(C#N)[C@@H]1O)Oc1ccccc1 (some centres unmarked) [Compound 10] | 9.5 µM | 10 µM |  |
| CCCCCCCCCCCCCCCCCC(=O)Nc1ccn(C2O[C@H](CO[P@](=O)(N[C@@H](C)C(=O)OC(C)C)Oc3ccccc3)[C@@H](O)[C@@]2(C)C#N)c(=O)n1 (some centres unmarked) [Compound 11] | 1.8 µM | 25 µM |  |
| CC(C)OC(=O)[C@H](C)NP(=O)(OC[C@H]1O[C@@H](n2ccc(NC(=O)C(C)C)nc2=O)[C@](C)(C#N)[C@@H]1OC(=O)C(C)C)Oc1ccccc1 (some centres unmarked) [Compound 12] | 10 µM | 76 µM |  |
| CCCCCCCCCCCCCCCCCC(=O)Nc1ccn(C2O[C@H](CO[P@](=O)(N[C@@H](C)C(=O)OC(C)C)Oc3ccccc3)[C@@H](OC(=O)CCCCCCCCCCCCCCCCC)[C@@]2(C)C#N)c(=O)n1 (some centres unmarked) [Compound 13] | > 100 µM | >100 µM |  |
| CC(C)OC(=O)[C@H](C)NP(=O)(OC[C@H]1O[C@@H](n2ccc(N)nc2=O)[C@](C)(N=[N+]=[N-])[C@@H]1OC(=O)C(C)C)Oc1ccccc1 (some centres unmarked) [Compound 15] | 0.6 µM | >100 µM |  |
| CCCC(CCC)C(=O)O[C@@H]1[C@@H](COP(=O)(N[C@@H](C)C(=O)OC(C)C)Oc2ccccc2)O[C@@H](n2ccc(N)nc2=O)[C@]1(C)N=[N+]=[N-] (some centres unmarked) [Compound 16] | 0.1 µM | 13 µM |  |
| CCCCCCCCCCCCCCCCCC(=O)O[C@@H]1[C@@H](COP(=O)(N[C@@H](C)C(=O)OC(C)C)Oc2ccccc2)O[C@@H](n2ccc(N)nc2=O)[C@]1(C)N=[N+]=[N-] (some centres unmarked) [Compound 17] | 8.2 µM | 9.9 µM |  |
| CC(C)OC(=O)[C@H](C)NP(=O)(OC[C@H]1O[C@@H](n2ccc(NC(=O)C(C)C)nc2=O)[C@](C)(N=[N+]=[N-])[C@@H]1OC(=O)C(C)C)Oc1ccccc1 (some centres unmarked) [Compound 18] | 15 µM | >100 µM |  |
| CC(C)OC(=O)[C@H](C)NP(=O)(OC[C@H]1O[C@@H](n2ccc(NC(=O)C(C)C)nc2=O)[C@](C)(N=[N+]=[N-])[C@@H]1O)Oc1ccccc1 (some centres unmarked) [Compound 19] | 8.5 µM | >100 µM |  |
| CCCCCCCCCCCCCCCCCC(=O)Nc1ccn([C@@H]2O[C@H](COP(=O)(N[C@@H](C)C(=O)OC(C)C)Oc3ccccc3)[C@@H](O)[C@@]2(C)N=[N+]=[N-])c(=O)n1 (some centres unmarked) [Compound 20] | 3.6 µM | >100 µM |  |
| CC(C)OC(=O)[C@H](C)NP(=O)(OC[C@H]1O[C@@H](n2ccc(=O)[nH]c2=O)[C@](C)(C#N)[C@@H]1OC(=O)C(C)C)Oc1ccccc1 (some centres unmarked) [Compound 23] | 0.7 µM | >100 µM |  |
| CC(C)OC(=O)[C@H](C)NP(=O)(OC[C@H]1O[C@@H](n2ccc(=O)[nH]c2=O)[C@](C)(C#N)[C@@H]1OC(=O)C1CC1)Oc1ccccc1 (some centres unmarked) [Compound 24] | 6.3 µM | >100 µM |  |
| CC(C)OC(=O)[C@H](C)NP(=O)(OC[C@H]1O[C@@H](n2ccc(=O)[nH]c2=O)[C@](C)(C#N)[C@@H]1OC(=O)C1CCC1)Oc1ccccc1 (some centres unmarked) [Compound 25] | 0.7 µM | >100 µM |  |
| CC(C)OC(=O)O[C@@H]1[C@@H](COP(=O)(N[C@@H](C)C(=O)OC(C)C)Oc2ccccc2)O[C@@H](n2ccc(=O)[nH]c2=O)[C@]1(C)C#N (some centres unmarked) [Compound 26] | 1 µM | >100 µM |  |
| CC(C)NC(=O)O[C@@H]1[C@@H](COP(=O)(N[C@@H](C)C(=O)OC(C)C)Oc2ccccc2)O[C@@H](n2ccc(=O)[nH]c2=O)[C@]1(C)C#N (some centres unmarked) [Compound 27] | > 100 µM | >100 µM |  |
| CCCCC(=O)O[C@@H]1[C@@H](COP(=O)(N[C@@H](C)C(=O)OC(C)C)Oc2ccccc2)O[C@@H](n2ccc(=O)[nH]c2=O)[C@]1(C)C#N (some centres unmarked) [Compound 28] | 0.7 µM | 76 µM |  |
| CCCC(CCC)C(=O)O[C@@H]1[C@@H](COP(=O)(N[C@@H](C)C(=O)OC(C)C)Oc2ccccc2)O[C@@H](n2ccc(=O)[nH]c2=O)[C@]1(C)C#N (some centres unmarked) [Compound 29] | 0.19 µM | 20 µM |  |
| C[C@@]1(N)[C@H](O)[C@@H](COP(=O)(O)OP(=O)(O)OP(=O)(O)O)O[C@H]1n1ccc(N)nc1=O [Compound 34] |  |  | 0.05 µM |
| C[C@@]1(N)[C@H](O)[C@@H](COP(=O)(O)OP(=O)(O)OP(=O)(O)O)O[C@H]1n1ccc(=O)[nH]c1=O [Compound 35] |  |  | 4.7 µM |
| C#C[C@]1(C)[C@H](O)[C@@H](COP(=O)(O)OP(=O)(O)OP(=O)(O)O)O[C@H]1n1ccc(=O)[nH]c1=O [Compound 36] |  |  | 11 µM |
